Earlier results, collected in patent publication US11400105B2, “Anti-inflammatory properties of marine lipid compositions” (AKER BIOMARINE ANTARCTIC AS, priority 2006, dated 2022).

Legend:
pre-term infants = details: for absorption: ref [8]
[1] = ethyl esters (4 g/d); ref [12]

CCCCCC=CCC=CCC=CCC=CCCCC(=O)O [AA, 5,8,11,14-eicosatetraenoic acid]
absorption (pre-term infants): 75%

CC/C=C\C/C=C\C/C=C\C/C=C\C/C=C\C/C=C\CCC(=O)O [DHA, 4,7,10,13,16,19-docosahexanoic acid]
absorption of DHA from egg lecithin (pre-term infants; ref [7]): 90% | absorption of DHA from triglycerides (pre-term infants; ref [7]): 80% | absorption (pre-term infants): 62% | relative absorption based on the area under the concentration curve [1]: 93% | relative absorption compared to oleic acid calculated from peak concentrations [1]: 100%

CCC=CCC=CCC=CCC=CCC=CCCCC(=O)O [EPA, 5,8,11,14,17-eicosapentaenoic acid]
relative absorption based on the area under the concentration curve [1]: 91% | relative absorption compared to oleic acid calculated from peak concentrations [1]: 94%
